One data set is described as follows: in vitro. The settings on record: mouse, NCTC-929 cells.
The subject of data set [1] is Trypanosoma cruzi. Nature of the data set: Antimicrobial activity against amastigote stage of Trypanosoma cruzi CL Brener infected in mouse NCTC-929 cells assessed as growth inhibition at 8 uM after 7 days by beta-galactosidase reporter gene assay. The data set is classed as functional. The settings on record: NCTC-929, 168 h, read-out: GI. Background: A reporter such as luciferase makes a cellular process visible.

The subject of data set [2] is Trypanosoma cruzi. Nature of the data set: Antimicrobial activity against amastigote stage of Trypanosoma cruzi CL Brener infected in mouse NCTC-929 cells assessed as growth inhibition at 32 uM after 7 days by beta-galactosidase reporter gene assay. The format is functional. The settings on record: NCTC-929, 168 h, read-out: GI.
Data set [3] concerns Trypanosoma cruzi. The data set is described as follows: Antimicrobial activity against amastigote stage of Trypanosoma cruzi CL Brener infected in mouse NCTC-929 cells assessed as growth inhibition at 2 uM after 7 days by beta-galactosidase reporter gene assay. The data set is classed as functional. The settings on record: NCTC-929, 168 h, read-out: GI.
Data set [4] relates to Trypanosoma cruzi. The data set is described as follows: Antimicrobial activity against amastigote stage of Trypanosoma cruzi CL Brener infected in mouse NCTC-929 cells assessed as growth inhibition at 1 uM after 7 days by beta-galactosidase reporter gene assay. The data set is classed as functional. The settings on record: NCTC-929, 168 h, read-out: GI.
Data set [5] can be described thus: Cytotoxicity against mouse NCTC-929 cells at […] after 48 hrs by resazurin staining-based fluorescence assay. The settings on record: read-out: INH. The data set is classed as cell-based.
Data set [6] concerns Trypanosoma cruzi. The data set is described as follows: Antimicrobial activity against amastigote stage of Trypanosoma cruzi CL Brener infected in mouse NCTC-929 cells assessed as growth inhibition at 16 uM after 7 days by beta-galactosidase reporter gene assay. The settings on record: NCTC-929, 168 h, read-out: GI. The format is functional.
Data set [7] relates to Trypanosoma cruzi. The data set is described as follows: Antimicrobial activity against epimastigote stage of Trypanosoma cruzi CL Brener assessed as growth inhibition at […] after 72 hrs by beta-galactosidase reporter gene assay. The format is functional. The settings on record: read-out: GI.
Data set [8] in a line: Selectivity index, ratio of LC50 for mouse NCTC-929 cells to IC50 for epimastigote stage of Trypanosoma cruzi CL Brener. The data set is classed as toxicity, cell-based. The settings on record: read-out: Ratio LC50/IC50.
Data set [9] is described as follows: Cytotoxicity against mouse NCTC-929 cells after 48 hrs by resazurin staining-based fluorescence assay. The data set is classed as cell-based. The settings on record: read-out: LC50. A general note: Resazurin is reduced to fluorescent resorufin, in cell work by metabolically active cells.
Data set [10] deals with Trypanosoma cruzi. Nature of the data set: Antimicrobial activity against amastigote stage of Trypanosoma cruzi CL Brener infected in mouse NCTC-929 cells assessed as growth inhibition at 4 uM after 7 days by beta-galactosidase reporter gene assay. The format is functional. The settings on record: NCTC-929, 168 h, read-out: GI.
In data set [11] the test system is Trypanosoma cruzi. Nature of the data set: Antimicrobial activity against amastigote stage of Trypanosoma cruzi CL Brener infected in mouse NCTC-929 cells assessed as growth inhibition at 0.5 uM after 7 days by beta-galactosidase reporter gene assay. The data set is classed as functional. The settings on record: NCTC-929, 168 h, read-out: GI.
The test system of data set [12] is Trypanosoma cruzi. Nature of the data set: Antimicrobial activity against epimastigote stage of Trypanosoma cruzi CL Brener assessed as growth inhibition after 72 hrs by beta-galactosidase reporter gene assay. The data set is classed as functional, organism-based.
The test system of data set [13] is Trypanosoma cruzi. The data set is described as follows: Antimicrobial activity against amastigote stage of Trypanosoma cruzi CL Brener infected in mouse NCTC-929 cells assessed as growth inhibition after 7 days by beta-galactosidase reporter gene assay. The data set is classed as functional, organism-based. The settings on record: NCTC-929, 168 h.

Some results are limits rather than exact numbers.

What is called IC50 is the point on the concentration scale where inhibition reaches its midpoint.

Description for in vitro: Selectivity index, ratio of LC50 for mouse NCTC-929 cells to IC50 for amastigote stage of Trypanosoma cruzi CL Brener infected in mouse NCTC-929 cells

For the compound `O=C(Cn1ccnc1[N+](=O)[O-])NCc1ccccc1` [BENZNIDAZOLE], the selectivity ratio in “in vitro” is greater than 320; in data set [8] it was greater than 9.44. Besides, in the data set with Trypanosoma cruzi [1], the inhibition of growth at 8 µM stood at 96.6%. In addition, the inhibition of growth at 32 µM in the data set on Trypanosoma cruzi [2] is 100%. The inhibition of growth at 2 µM in the data set with Trypanosoma cruzi [3] is 64.4%. Besides, the inhibition of growth at 1 µM in the data set with Trypanosoma cruzi [4] was determined as 55.6%. For the same compound, in data set [5], the cytotoxicity at 48 h, […] was determined as 17.4%. In addition, the inhibition of growth at 16 µM in the data set with Trypanosoma cruzi [6] was found to be 100%. Besides, in the data set on Trypanosoma cruzi [7], the inhibition of growth at […] was found to be 82%. Also, the CC50 at 48 h in [9] was greater than 256 µM. Further, the inhibition of growth at 4 µM in the data set on Trypanosoma cruzi [10] worked out at 74.7%. Besides, the inhibition of growth at 0.5 µM in the data set on Trypanosoma cruzi [11] stood at 41.6%.
As for `Clc1ccc2c(NCc3ccccc3)ccnc2c1`, the half-inhibitory concentration (IC50) in the data set on Trypanosoma cruzi [12] was 6.55 µM. In data set [5], the cytotoxicity at 48 h, […] came out at 71.4%. Besides, in the data set with Trypanosoma cruzi [7], the inhibition of growth at […] turned out to be 95.1%. Also, the selectivity ratio in data set [8] is 3.71. Further, the CC50 at 48 h in data set [9] is 2.28 µM.
Take `O=C1CSC(c2ccc3c(c2)OCO3)N1CCNc1ccnc2cc(Cl)ccc12` (stereo unspecified): in the data set on Trypanosoma cruzi [12], the IC50 was 6.84 µM. The inhibition of growth at […] with Trypanosoma cruzi [7] was determined as 84.3%. Also, the selectivity ratio in [8] was found to be 2.85. The CC50 at 48 h in data set [9] was 19.5 µM.
In the case of `CC1CS(=O)(=O)CCN1/N=C/c1ccc([N+](=O)[O-])o1` (stereo unspecified) [NIFURTIMOX], the inhibition of growth at 8 µM with Trypanosoma cruzi [1] was 100%. Also, the inhibition of growth at 32 µM in the data set with Trypanosoma cruzi [2] amounted to 100%. Further, the inhibition of growth at 2 µM in the data set with Trypanosoma cruzi [3] is 100%. In addition, the inhibition of growth at 1 µM in the data set with Trypanosoma cruzi [4] was found to be 100%. Also, the cytotoxicity at 48 h, […] in data set [5] came out at 26.8%. For the same compound, the 50% inhibitory concentration (IC50) in the data set with Trypanosoma cruzi [13] was less than 0.5 µM. The inhibition of growth at 16 µM with Trypanosoma cruzi [6] is 100%. Further, the inhibition of growth at […] in the data set on Trypanosoma cruzi [7] worked out at 100%. In addition, the inhibition of growth at 4 µM in the data set with Trypanosoma cruzi [10] amounted to 100%. Moreover, the inhibition of growth at 0.5 µM in the data set on Trypanosoma cruzi [11] is 96.5%.
